US6355619B1, “Peptide tumor cell growth inhibitors” (Board of Regents, The University of Texas System, priority 1996, dated 2002)
Like-named read-outs stand apart in the source and are kept apart here.

Tests used:
[1] = target: T1, C5a binding to human neutrophils (Homo sapiens, UniProt P21730); assay: Binding of 125I-C5a to human neutrophils; details: 100 μM peptide; 0.25 nM 125I-labeled C5a
T1 construct: endogenous in cells; host or cells: human blood neutrophils
Description: To examine the specificity of Ac-RRWWCR-NH2 (SEQ ID NO:1) on ligand-receptor binding, the inventors tested whether the peptide reduced the binding of human ^125I-C5a or ^3H-leukotriene B4 to human neutrophils.
Recombinant human fifth component of complement (C5a) (Sigma Chemical Co., St. Louis, Mo.) was radioiodinated enzymatically using Enzymobead (Bio Rad, Richmond, Calif.). Tritiated leukotriene B4 was purchased from Du Pont Co., Wilmington, Del. Binding assays for C5a and leukotriene B4 were performed as described for IL-8 binding in Example I, except that the buffers used were PBS containing 1 mM CaCl2, 0.5 mM MgCl2, 0.5% BSA, and HBSS containing 0.1% ovulabumin and 10 mM HEPES (pH7.3), respectively, as previously described (Braunwalder et al., 1992; Sherman et al., 1988). The radioactivity was measured with liquid scintillation counter for the leukotriene B4 assay. The binding of both ligands were saturable and inhibited by the non-labeled agonists in dose dependent manners.

[2] = system: IL-8-induced neutrophil chemotaxis; assay: Neutrophil chemotaxis stimulated by IL-8 (leading front, Boyden chamber); assay type: cell-based, human
Procedure: FIG. 7. The Effect of Ac-RRWWCR-NH2 (SEQ ID NO:1) on Neutrophil Chemotaxis. Chemotaxis was performed in the presence of increasing concentration of Ac-RRWWCR-NH2 (SEQ ID NO:1) in both upper and lower chamber. Stimulants added to lower chamber were 10 nM IL-8 (●), 10 nM fMLP (▪), or media alone (◯) as control. Analysis of variance was used for multiple comparison.
(§1) Chemotaxis was performed using the leading front method as described by Zigmond and Hirsh (1973). IL-8 or controls were placed in the lower well of a Boyden chamber. A five micron pore size, 100 μm. thick cellulose nitrate filter (Sartorius Filter,. Inc., San Francisco, Calif.) was placed on the surface and the chamber was then assembled. A 200 μl aliquot of the neutrophil preparation (1×10^6 cells/ml) in RPMI-1640 media containing 1% BSA was added to the top of the filter and incubated at 37° C. for 30 min. The filter was then fixed, stained and mounted on a glass microscope slide. The leading front was determined by the position of the leading two cells. The distance that the leading two cells had moved through the filter was measured for six fields on each filter. The measurements were made with four filters for each set of conditions.

neutrophils [3] = assay: Checkerboard analysis for chemotactic activity of the peptide itself; assay type: cell-based, human
Procedure: as §1

[4] = system: C5a-stimulated neutrophil enzyme release; assay: β-glucuronidase release from neutrophils stimulated by C5a; assay type: cell-based, human; details: 100 nM C5a
Procedure: (§2) FIG. 8. The Effect of Ac-RRWWCR-NH2 (SEQ ID NO:1) on β-glucuronidase Release. Neutrophils pretreated with cytochalasin B were incubated with 100 nM IL-8 (●), 100 nM fMLP (▪), 100 nM C5a (_) or 100 nM leukotriene B4 ? or without any stimulant (◯) in the presence of increasing concentration of Ac-RRWWCR-NH2 (SEQ ID NO:1) for 30 min at 37° C. β-glucuronidase activity of supernatants were measured using phenolphthalein-glucuronic acid as substrate. Analysis of variance was used for multiple comparison.
(§3) Neutrophil enzyme release was studied by a modification of the method of Goldstein and colleagues (Goldstein et al., 1973). Cytochalasin B (Sigma Chemical Co.) was stored in dimethyl sulfoxide at a concentration of 5 mg/ml and was diluted to a concentration of 50 μg/ml in Hank's Balanced Salt Solution (HBSS) immediately before use. Cytochalasin B, 200 μl, was added to 1 ml of suspension of neutrophils, 6.25×10^6 cells/ml in HBSS, to achieve a final cytochalasin B concentration of […]. The solution was then incubated in 96 well plates at room temperature for 10 min. The stimulant, 100 μl, was added, and this cell suspension was incubated for 30 min at 37° C. The plates were centrifuged and 100 μl of supernatant was removed. […] After 16 hr incubation at 37° C., 200 μl of 0.2 M Glycine in 0.2 M NaCl, pH10.4 was added to each well and OD540 was measured as the enzyme activity.

[5] = system: leukotriene B4-stimulated neutrophil enzyme release; assay: β-glucuronidase release from neutrophils stimulated by leukotriene B4; assay type: cell-based, human; details: 100 nM leukotriene B4
Procedure: as §2, §3

human neutrophils = assay: Binding of the peptide to human neutrophils
neutrophils [6] = system: neutrophils
Procedure: Cytotoxicity Test. […] (●) or in RPMI-1640 media containing 1% BSA for 30 min at 37° C. (◯).
This was achieved by measuring the amount of ^51Cr released from neutrophils, as follows: The neutrophil preparation (2×10^7/ml) in RPMI-1640 media containing 10% donor's plasma was incubated with 500 μCi of Na2^51CrO4 (Du Pont Co.) for 60 min at 37° C. The cells were washed 3 times, resuspended in the media at the concentration of 1×10^7/ml, and then incubated for 30 min at 37° C. to allow spontaneous lysis of marginally viable cells. […] The buffer and the conditions of incubation simulated either the binding assay or the chemotactic assay. After the incubation, the tubes were centrifuged at 300×g for 7 min at 4° C. and the radioactivity in the supernatant was then counted in a gamma radiation spectrometer. Triplicate tubes containing buffer alone or 2% SDS were used to determine spontaneous and maximum release, respectively. The percentage lysis was calculated by using the following formula: [formula]

[7] = Hep G2 culture, 100 μM peptide
Procedure: Analysis for the breakdown of Antileukinate in the culture of Hep G2 cells. A total concentration of tritium labeled and unlabeled Antileukinate of 100 μM, was added to the culture of Hep G2 cells. Aliquots of medium were removed at different times and chromatographed on an HPLC Bondapak C18 reversed phase column. The peptides were eluted using a gradient from 0.1% TFA to 80% acetonitrile in 0.1% TFA. One milliliter fractions were collected and measured for their radioactivity using a liquid scintillation counter. The chromatographs show the elution volume of the radioactivity at different times after addition to the cells.
Hs 294T and Hep G2 cells, 2×10^4 cell/well, were cultured in 24 well tissue culture plates for 24 hr. Then the culture media were replaced with media containing tritiated Antileukinate, 0.2 μCi, mixed with 100 μM unlabeled peptide in each well. The cells were then cultured for the indicated periods. The supernatants were collected and stored at −70° C. until use. The breakdown of Antileukinate during the cell culture was analyzed on high performance liquid chromatography (HPLC) using an analytical C18 reversed phase column (Waters Co., New Bedford, Mass.). […] One milliliter fractions were collected and measured for their radioactivity content using a liquid scintillation counter.

Hs 294T = details: 16 hr
Procedure: The cell lines (4×10^5 cells/well) in RPMI-1640 medium containing 10% fetal bovine serum were incubated with 10 μCi of Na2^51CrO4 (DuPont NEN Co.) for 60 min at 37° C. in a 24 well tissue culture plate. The cells were washed 3 times and then incubated in cell culture medium for 30 min at 37° C. to allow spontaneous lysis of marginally viable cells. […] The cells were cultured for 16 hr at 37° C. and then the radioactivity in the supernatants was counted in a gamma radiation spectrometer. Quadriplicate wells received cell culture medium alone or 2% SDS to determine spontaneous and maximum release, respectively. The percentage lysis was calculated by using the following formula: [formula]

[8] = 100 μM peptide, 72 hr, trypan blue dye exclusion
Procedure: The viability of Hs 294T cells after the culture for 72 hr in the presence of Antileukinate. Melanoma cell line Hs 294T was cultured in the presence of various concentrations of Antileukinate for 72 hr. The viability of the cells was measured by means of trypan blue dye exclusion.

[9] = peptide below filter 1.0 μM, above filter 5.0 μM
[10] = peptide below filter 1.0 μM, above filter 12.5 μM
[11] = peptide below filter 1.0 μM, above filter 25.0 μM
[12] = peptide below filter 5.0 μM, above filter 1.0 μM
[13] = peptide below filter 5.0 μM, above filter 12.5 μM
[14] = peptide below filter 5.0 μM, above filter 25.0 μM
[15] = peptide below filter 12.5 μM, above filter 1.0 μM
[16] = peptide below filter 12.5 μM, above filter 5.0 μM
[17] = peptide below filter 12.5 μM, above filter 25.0 μM
[18] = peptide below filter 25.0 μM, above filter 1.0 μM
[19] = peptide below filter 25.0 μM, above filter 5.0 μM
[20] = peptide below filter 25.0 μM, above filter 12.5 μM

T1 sequence (P21730 whole entry): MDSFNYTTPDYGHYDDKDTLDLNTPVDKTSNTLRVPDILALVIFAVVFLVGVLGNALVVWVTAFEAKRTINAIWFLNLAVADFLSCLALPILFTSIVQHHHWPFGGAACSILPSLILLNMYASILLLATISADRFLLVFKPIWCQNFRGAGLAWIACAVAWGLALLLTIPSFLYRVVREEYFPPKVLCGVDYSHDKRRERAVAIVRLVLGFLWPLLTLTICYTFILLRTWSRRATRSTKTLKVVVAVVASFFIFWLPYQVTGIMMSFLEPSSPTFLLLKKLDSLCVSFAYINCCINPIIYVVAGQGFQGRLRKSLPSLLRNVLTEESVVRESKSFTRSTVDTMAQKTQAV

## RRWWCR [Ac-RRWWCR-NH2]
[1]
  effect on binding of C5a to neutrophils: did not affect the binding
[2]; chemotaxis induced by 10 nM IL-8
  peptide concentration significantly suppressing chemotaxis: 50 lM
[2]; neutrophils stimulated with 10 nM IL-8
  peptide concentration significantly inhibiting chemotaxis: 50 µM
Neutrophils [3]
  chemotactic activity of the peptide (checkerboard analysis): not chemotactic for neutrophils
Neutrophils [3]; control studies, media alone
  effect on chemokinesis of neutrophils: had no effect on chemokinesis
Neutrophils [3]; peptide below filter 1.0 μM, above filter 1.0 μM
  migration, mean ± SD of experimental observations: 27.8 ± 5.5
Neutrophils [3]; [9]
  calculated migration expected if cells responded to absolute concentration, not gradient: 29.1
  migration, mean ± SD of experimental observations: 28.0 ± 4.7
Neutrophils [3]; [10]
  calculated migration expected if cells responded to absolute concentration, not gradient: 24.2
  migration, mean ± SD of experimental observations: 25.6 ± 4.0
Neutrophils [3]; [11]
  calculated migration expected if cells responded to absolute concentration, not gradient: 24.3
  migration, mean ± SD of experimental observations: 26.7 ± 6.3
Neutrophils [3]; [12]
  calculated migration expected if cells responded to absolute concentration, not gradient: 28.0
  migration, mean ± SD of experimental observations: 29.6 ± 6.3
Neutrophils [3]; peptide below filter 5.0 μM, above filter 5.0 μM
  migration, mean ± SD of experimental observations: 29.3 ± 7.2
Neutrophils [3]; [13]
  calculated migration expected if cells responded to absolute concentration, not gradient: 23.7
  migration, mean ± SD of experimental observations: 24.2 ± 5.4
Neutrophils [3]; [14]
  calculated migration expected if cells responded to absolute concentration, not gradient: 24.4
  migration, mean ± SD of experimental observations: 25.9 ± 6.7
Neutrophils [3]; [15]
  calculated migration expected if cells responded to absolute concentration, not gradient: 28.4
  migration, mean ± SD of experimental observations: 27.0 ± 5.5
Neutrophils [3]; [16]
  calculated migration expected if cells responded to absolute concentration, not gradient: 28.5
  migration, mean ± SD of experimental observations: 27.5 ± 4.8
Neutrophils [3]; peptide below filter 12.5 μM, above filter 12.5 μM
  migration, mean ± SD of experimental observations: 22.9 ± 5.9
Neutrophils [3]; [17]
  calculated migration expected if cells responded to absolute concentration, not gradient: 24.5
  migration, mean ± SD of experimental observations: 24.8 ± 5.8
Neutrophils [3]; [18]
  calculated migration expected if cells responded to absolute concentration, not gradient: 28.4
  migration, mean ± SD of experimental observations: 30.9 ± 4.7
Neutrophils [3]; [19]
  calculated migration expected if cells responded to absolute concentration, not gradient: 27.1
  migration, mean ± SD of experimental observations: 27.5 ± 4.9
Neutrophils [3]; [20]
  calculated migration expected if cells responded to absolute concentration, not gradient: 23.1
  migration, mean ± SD of experimental observations: 27.9 ± 4.8
Neutrophils [3]; peptide below filter 25.0 μM, above filter 25.0 μM
  migration, mean ± SD of experimental observations: 24.7 ± 3.8
[4]
  effect on enzyme release stimulated by C5a: did not affect the enzyme release
[5]
  effect on enzyme release stimulated by leukotriene B4: did not affect the enzyme release
Human neutrophils
  binding of the peptide to human neutrophils: binds to human neutrophils
Neutrophils [6]; 100 μM peptide, RPMI-1640 1% BSA, 30 min at 37° C.
  cell lysis under conditions used in chemotaxis: had no effect
Neutrophils [6]; 500 μM peptide, RPMI-1640 1% BSA, 30 min at 37° C.
  cells damaged under conditions used in chemotaxis: ~25%
Neutrophils [6]; PBS containing 0.1% BSA, 90 min at 4° C., up to 500 μM peptide
  percentage of cells lysed: remained near control level
[7]
  time within which the peptide is substantially eliminated from the culture: ≤ 24 h
[7]; after 24 hr
  decrease of the major radioactivity peak (intact peptide): more than 85%
Hs 294T; 1 μM peptide
  % cell lysis: −4.0 ± 5.2%
Hs 294T; 5 μM peptide
  % cell lysis: −3.2 ± 7.2%
Hs 294T; 20 μM peptide
  % cell lysis: −1.6 ± 3.7%
Hs 294T; 100 μM peptide
  % cell lysis: 2.4 ± 7.9%
[8]
  viability of Hs 294T cells: greater than 92%
